Patent publication US11939344B2, “Spirocyclic compounds” (ASTRAZENECA AB, priority 2021, dated 2024)

How the values were obtained:
HCT116 KO-MTAP cells [1] = assay: PRMT5 cell SDMA assay, MTAP KO cells; format: cell-based; conditions: Homo sapiens
HCT116 WT cells [2] = assay: PRMT5 cell SDMA assay, MTAP WT cells; format: cell-based; conditions: Homo sapiens
HCT116 KO-MTAP cells [3] = assay: Cell proliferation assay (Alamar Blue), MTAP KO cells; format: cell-based; conditions: Homo sapiens
Procedure: (§1) Cell Proliferation Assays:
(§2) A day 0 plate is created in parallel but not dosed, after plating 4 μl of Alamar Blue (Thermo #DAL1100) and incubate for 3 h at 37 C, 5% CO2.
(§3) The dosed cell plates were then incubated for 5 days at 37° C. before adding Alamar blue and being read in the Envision following same protocol as for first plate.

HCT116 WT cells [4] = assay: Cell proliferation assay (Alamar Blue), MTAP WT cells; format: cell-based; conditions: Homo sapiens, HCT-116, 120 h, 5 days
Procedure: as §1, §2, §3

[5] = molecular target: human heterooctameric PRMT5:MEP50 enzyme complex (Homo sapiens, UniProt O14744); assay: biochemical
human heterooctameric PRMT5:MEP50 enzyme complex, sequence (O14744 whole entry): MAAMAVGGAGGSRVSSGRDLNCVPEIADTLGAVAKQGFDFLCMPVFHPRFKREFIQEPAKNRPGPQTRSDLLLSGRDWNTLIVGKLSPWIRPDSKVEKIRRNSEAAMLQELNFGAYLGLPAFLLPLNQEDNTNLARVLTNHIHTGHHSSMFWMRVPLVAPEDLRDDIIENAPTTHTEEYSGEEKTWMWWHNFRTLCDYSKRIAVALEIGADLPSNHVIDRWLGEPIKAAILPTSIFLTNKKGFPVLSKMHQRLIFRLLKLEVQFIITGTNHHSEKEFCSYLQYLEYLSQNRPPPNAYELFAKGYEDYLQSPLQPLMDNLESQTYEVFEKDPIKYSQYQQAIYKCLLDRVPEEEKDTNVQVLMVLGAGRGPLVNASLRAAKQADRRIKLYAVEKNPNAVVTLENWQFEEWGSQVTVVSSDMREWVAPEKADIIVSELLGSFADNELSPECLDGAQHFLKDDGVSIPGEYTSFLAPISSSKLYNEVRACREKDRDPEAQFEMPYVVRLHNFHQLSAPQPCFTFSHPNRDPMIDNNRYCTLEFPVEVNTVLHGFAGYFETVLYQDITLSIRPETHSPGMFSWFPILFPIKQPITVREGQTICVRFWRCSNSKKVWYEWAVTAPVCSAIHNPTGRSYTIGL
human heterooctameric PRMT5:MEP50 enzyme complex, sequence (Q9BQA1 whole entry partner): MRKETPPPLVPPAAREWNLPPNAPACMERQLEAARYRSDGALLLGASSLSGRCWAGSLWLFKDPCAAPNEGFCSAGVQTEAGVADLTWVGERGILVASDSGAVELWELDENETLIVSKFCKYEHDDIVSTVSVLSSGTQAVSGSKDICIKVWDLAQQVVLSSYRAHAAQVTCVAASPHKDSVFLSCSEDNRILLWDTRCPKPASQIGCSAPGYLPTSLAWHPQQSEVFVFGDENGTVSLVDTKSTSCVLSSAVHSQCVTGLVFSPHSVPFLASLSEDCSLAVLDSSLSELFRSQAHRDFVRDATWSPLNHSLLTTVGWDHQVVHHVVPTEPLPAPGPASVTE
Procedure: MTase-GIlo™ PRMT5 Luminescence Assays (PRMT5 Enzyme Assays)
An Mtase-Glo™ methyltransferase Luminescence assay was employed to monitor the conversion of S-Adenosyl methionine (SAM) to S-Adenosyl Homocysteine (SAH) by recombinant PRMT5:MEP50 enzyme complex in the presence or absence of the 5′-Methylthioadenosine (MTA). […] The reaction buffer contained 20 mM Bicine (pH 7.60), 25 mM NaCl, 1 mM DTT and 0.1% (w/v) CHAPS.
All wells were backfilled with the appropriate volume of DMSO to achieve a final concentration of 1% v/v in a 3 μl final assay volume.
After 5 h incubation in room temperature, 1 μL of 0.5% (v/v) TFA was added to each well to quench the methylation reaction.
Data was analysed and the IC50 values were calculated using the Genedata Screener® software.

[6] = HCT-116, HCT116 MTAP KO, 48 hours, read-out: Cell SDMA IC50 (μM) (MTAP KO)
[7] = HCT-116, HCT116 MTAP WT, 48 hours, read-out: Cell SDMA IC50 (μM) (MTAP WT)
[8] = HCT-116, 120 h, HCT116 MTAP KO, 5 days, read-out: Cell proliferation IC50 (μM) (MTAP KO)

Row | SMILES | IC50 (HCT116 KO-MTAP cells [1]; HCT-116, column 4, read-out: Cell SDMA IC50, MTAP knock out HCT116 cells) | IC50 (HCT116 KO-MTAP cells [1]; [6]) | IC50 (HCT116 WT cells [2]; HCT-116, column 5, read-out: Cell SDMA IC50, HCT116 wild type cells) | IC50 (HCT116 WT cells [2]; [7]) | IC50 (HCT116 KO-MTAP cells [3]; [8]) | IC50 (HCT116 KO-MTAP cells [3]; HCT-116, column 6, read-out: Cell proliferation IC50 in MTAP KO cells) | IC50 (HCT116 WT cells [4]) | IC50 [5]
1 | C#CCN1CC[C@@]2(C1=O)c1ccc(F)cc1C(=O)N2Cc1cc2nc(N)c(F)cc2[nH]1 [Example 3, (S)-2-((5-Amino-6-fluoro-1H-pyrrolo[3,2-b]pyridin-2-yl)methyl)-5-fluoro-1′-(prop-2-yn-1-yl)spiro[isoindoline-1,3′-pyrrolidine]-2′,3-dione] | 0.013 µM | 0.013 µM | 0.56 µM | 0.56 µM | 0.32 µM | 0.32 µM | > 30 µM | 61 nM
2 | CC1(CN2CC[C@@]3(C2=O)c2ccc(F)cc2C(=O)N3Cc2cc3nc(N)cc(C#N)c3[nH]2)CC1 [Example 26, (S)-5-Amino-2-((5-fluoro-1′-((1-methylcyclopropyl)methyl)-2′,3-dioxospiro[isoindoline-1,3′-pyrrolidin]-2-yl)methyl)-1H-pyrrolo[3,2-b]pyridine-7-carbonitrile] | – | 0.0031 µM | – | 0.093 µM | 0.29 µM | – | 2.3 µM | –
3 | Nc1nc2cc(CN3C(=O)c4cc(F)ccc4[C@]34CCN(CCOC(F)(F)F)C4=O)[nH]c2cc1Cl [Example 27, (S)-2-((5-Amino-6-chloro-1H-pyrrolo[3,2-b]pyridin-2-yl)methyl)-5-fluoro-1′-(2-(trifluoromethoxy)ethyl)spiro[isoindoline-1,3′-pyrrolidine]-2′,3-dione] | – | 0.0047 µM | – | 0.17 µM | 0.36 µM | – | > 30 µM | –
4 | Cc1cc(N)nc2[nH]c(CN3C(=O)c4cc(F)ccc4[C@]34CCN(Cc3cc(F)c(F)cc3F)C4=O)cc12 [Example 28, (S)-2-((6-Amino-4-methyl-1H-pyrrolo[2,3-b]pyridin-2-yl)methyl)-5-fluoro-1′-(2,4,5-trifluorobenzyl)spiro[isoindoline-1,3′-pyrrolidine]-2′,3-dione] | – | 0.0028 µM | – | 0.071 µM | 0.13 µM | – | 1.4 µM | –
